Several values for one entry are separate records, joined by “and”; a condition that tells them apart may be missing. Equal values may be shown once.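 Cultured in 96-well plates, cells were exposed to test compound for 48 hours across five concentrations. The concentration for 50% growth inhibition is given as GI50. The concentration for full growth arrest is given as TGI.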
What was measured:
Assay in all cases: growth of human tumour cells (NCI), 48 h
UACC-257 melanoma = system: UACC-257 melanoma
SNB-19 CNS = system: SNB-19 CNS
SK-OV-3 ovarian = system: SK-OV-3 ovarian
NCI/ADR-RES ovarian = system: NCI/ADR-RES ovarian
786-0 renal = system: 786-0 renal
RXF 393 renal = system: RXF 393 renal
M14 melanoma = system: M14 melanoma
HT29 colon = system: HT29 colon
T-47D breast = system: T-47D breast
HCT-15 colon = system: HCT-15 colon

SMILES	TGI (UACC-257 melanoma) [µM]	TGI (SNB-19 CNS) [µM]	TGI (SK-OV-3 ovarian) [µM]	TGI (NCI/ADR-RES ovarian) [µM]	TGI (786-0 renal) [µM]	TGI (RXF 393 renal) [µM]	TGI (M14 melanoma) [µM]	TGI (HT29 colon) [µM]	TGI (T-47D breast)	TGI (HCT-15 colon) [µM]	GI50 (T-47D breast)
Cc1cc2c(c(=O)n1C)SCC2	> 100	> 100	> 100	> 100	> 100	> 100	> 100	> 100	> 100 µM	> 100	
COC(=O)[C@@H]1CN(C(=O)c2ccccc2)C(=O)N1C(=O)OCc1ccccc1	> 100	> 100	> 100	> 100	> 100	> 100	> 100	> 100	> 100 µM	> 100	
CCOP(=O)(OCC)/C(C#N)=C/c1cccn1Cc1ccccc1	> 100	> 100	> 100	> 100	> 100	> 100	> 100	> 100	74 µM	> 100	
COc1ccc(-c2cc(C(O)C3CCCCN3)c3ccccc3n2)cc1 (stereo not given)	4.48	28.1	27.3	39	20.6	11.3	4.61	11.5	14.1 µM	34.2	
Cc1ccc(/C(O)=C/c2nc3ccc([N+](=O)[O-])cc3nc2/C=C(\O)c2ccc(C)cc2)cc1	> 100	> 77.1	97.6	> 100	> 100	> 77.5	> 100	> 100	> 100 µM	> 100	
CN(C)C(=S)Oc1ccc2ccc(=O)oc2c1	> 100	> 100	> 100	> 100	> 100	> 100	> 100	> 100	> 100 µM	> 100	
CCOP(=O)(OCC)C(C)(CC)NC(=O)C(C(F)(F)F)C(F)(F)F (stereo not given)	> 100	> 100	> 100	> 100	> 100	> 100	> 100	> 100	> 100 µM and 99.7 µM	> 100	> 51.5 µM and 21.1 µM
COc1ccc(C(O)CC(O)(C(F)(F)F)C(F)(F)F)cc1 (stereo not given)	51.8	> 100	> 100	59.7	> 100	62	> 100	> 100	> 100 µM	> 100	
NCCOCC(N)C(=O)O (stereo not given)	> 100	> 100	> 100	> 100	> 100	> 100	> 100	> 100	> 100 µM	> 100	
O=C(/C=C/c1cccs1)c1ccccc1Cl	34.2	28.9	> 77.9	44.9	27.8	23.7	> 55.9	42.5	22.8 µM	33.4	
CN1C(=O)C(O)CC1c1cccc(C(F)(F)F)c1 (stereo not given)	> 100	> 100	> 100	> 100	> 100	> 100	> 100	> 100	> 100 µM	> 100	
CCOC(=O)C(=O)C(=O)NN(C)C1=NCCN1	> 100	> 100	> 100	> 100	> 100	> 100	> 100	> 100	> 100 µM	> 100	
Cc1ccc(S(=O)(=O)n2cc(C#N)c(C#N)c2)cc1	> 100		91.9	> 100	> 100	94.3	47.7	65.9	72.4 µM	59	
CCCNc1ncnc2[nH]ncc12	> 100	> 100	> 100	> 100	> 100	> 100	> 100	> 100	> 100 µM	> 100	
O=c1cc(NCc2ccncc2)[nH]c(=O)[nH]1	> 100	> 100	> 100	> 100	> 100	> 100	> 100	> 100	> 100 µM	> 100	
